Data published in ChEMBL document CHEMBL1133433, “Synthesis of a novel class of cdc25A inhibitors from vitamin D3” (Bioorg Med Chem Lett, 2000).

Columns and labels:
SBC-5 = assay: Inhibitory concentration required for antitumor activity against SBC-5 cells; format: functional, cell-based; details: Homo sapiens
[1] = biological target: T1, M-phase inducer phosphatase 1 (Homo sapiens, UniProt P30304); assay: Concentration required for the inhibitory activity against human Cell division cycle 25A
T1 sequence (P30304 whole entry): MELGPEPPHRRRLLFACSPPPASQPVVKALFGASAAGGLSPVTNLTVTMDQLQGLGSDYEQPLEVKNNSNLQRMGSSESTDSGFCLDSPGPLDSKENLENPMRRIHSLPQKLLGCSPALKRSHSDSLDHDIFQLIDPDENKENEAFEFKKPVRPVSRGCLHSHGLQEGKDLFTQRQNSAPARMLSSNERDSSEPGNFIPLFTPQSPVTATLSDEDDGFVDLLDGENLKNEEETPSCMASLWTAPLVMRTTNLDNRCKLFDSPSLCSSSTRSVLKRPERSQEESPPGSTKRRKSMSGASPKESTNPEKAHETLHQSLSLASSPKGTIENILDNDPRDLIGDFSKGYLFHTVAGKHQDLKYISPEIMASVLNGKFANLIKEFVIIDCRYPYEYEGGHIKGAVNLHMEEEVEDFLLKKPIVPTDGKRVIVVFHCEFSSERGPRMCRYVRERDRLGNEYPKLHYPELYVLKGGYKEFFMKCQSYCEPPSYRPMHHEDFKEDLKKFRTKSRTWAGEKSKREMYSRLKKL

SMILES	IC50 (SBC-5)	IC50 [1]
COC(=O)/C=C1\CCC[C@@]2(C)C1CC[C@@H]2[C@H](C)CCCC(C)C (some centres not stated)	71 µM	> 300 µM
CC(C)CCC[C@@H](C)[C@H]1CCC2C(CCCC(=O)O)CCC[C@@]21C (some centres not stated)	> 100 µM	9 µM
CC(C)CCC[C@@H](C)[C@H]1CCC2/C(=C/C=C/C(=O)O)CCC[C@@]21C (some centres not stated)	42 µM	94 µM
CC(C)CCC[C@@H](C)[C@H]1CCC2C(CC(=O)O)CCC[C@@]21C (some centres not stated)	> 100 µM	32 µM
CC(C)CCC[C@@H](C)[C@H]1CCC2/C(=C/C(=O)O)CCC[C@@]21C (some centres not stated)	47 µM	7.7 µM
COC(=O)CC1CCC[C@@]2(C)C1CC[C@@H]2[C@H](C)CCCC(C)C (some centres not stated)	70 µM	> 300 µM
